Literature values as cited in patent publication US20040220167A1, “Methods of treating neuralgic pain” (priority 2003, published 2004).

Conditions: in vivo

## Verteporfin
  fraction cleared via the kidneys: Less than 1%
  mean half-life: 5 to 6 h
  primary clearance route: primarily cleared through bile and feces
